Source: the supplement of paper PMC5579334
± gives the standard deviation of the averaged measurements.

Tests used:
HS-PSS [1] = test: drug sensitivity score (DSS, CellTiter-Glo viability, 72 h) (DSS (dimensionless)); higher = more sensitive; extreme values may be limits of the assay
Summary of the method: (§1)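 For this screen, 384-well plates were preprinted with each compound at five concentrations in 10-fold steps and seeded with MPNST cell lines or primary human Schwann cells at 750–1000 cells per well. Incubation lasted 72 h at 37 °C, 5% CO2, and CellTiter-Glo ATP luminescence, scaled between vehicle and positive-control wells and averaged over duplicates where available, served as viability. Logistic fits with four parameters were applied. Relative IC50 (censored at the top concentration) and drug sensitivity score derive from these fits, and percent inhibition is at the top concentration.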

HS-Sch-2 [2] = test: as above
Summary of the method: as §1

[3] = system: HSC1 (primary human Schwann cells); test: as above
Summary of the method: as §1

[4] = system: HSC2 (primary human Schwann cells); test: as above
Summary of the method: as §1

S1507-2 [5] = test: as above
Summary of the method: as §1

S462 [6] = test: as above
Summary of the method: as §1

ST8814 [7] = test: as above
Summary of the method: as §1

STS26T [8] = test: as above
Summary of the method: as §1

YST-1 [9] = test: as above
Summary of the method: as §1

HS-PSS [10] = test: drug sensitivity score (DSS, CellTox-Green cytotoxicity, 72 h) (DSS (dimensionless)); higher = more cytotoxic; extreme values may be limits of the assay
Summary of the method: (§2)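 MPNST cell lines and primary human Schwann cells were grown for 72 h at 37 °C in 384-well plates containing five 10-fold compound dilutions. CellTox-Green, added before seeding at a final 1:1000 dilution, gave fluorescence from DNA released by disrupted cells, and signals were scaled to vehicle and positive-control wells. Curves were fitted with a four-parameter logistic model. Drug sensitivity score and relative IC50 come from these fits, with IC50 censored at the top concentration.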

[11] = system: HSC1 (primary human Schwann cells); test: as above
Summary of the method: as §2

[12] = system: HSC2 (primary human Schwann cells); test: as above
Summary of the method: as §2

S1507-2 [13] = test: as above
Summary of the method: as §2

ST8814 [14] = test: as above
Summary of the method: as §2

STS26T [15] = test: as above
Summary of the method: as §2

HS-PSS [16] = test: % inhibition of CellTiter-Glo viability at highest tested concentration (72 h), relative to DMSO and benzethonium chloride controls; higher = more inhibition
Summary of the method: as §1

HS-Sch-2 [17] = test: as above
Summary of the method: as §1

[18] = system: HSC1 (primary human Schwann cells); test: as above
Summary of the method: as §1

[19] = system: HSC2 (primary human Schwann cells); test: as above
Summary of the method: as §1

S1507-2 [20] = test: as above
Summary of the method: as §1

S462 [21] = test: as above
Summary of the method: as §1

ST8814 [22] = test: as above
Summary of the method: as §1

STS26T [23] = test: as above
Summary of the method: as §1

YST-1 [24] = test: as above
Summary of the method: as §1

SMILES | drug sensitivity score (HS-PSS [1]) | drug sensitivity score (HS-Sch-2 [2]) | drug sensitivity score [3] | drug sensitivity score [4] | drug sensitivity score (S1507-2 [5]) | drug sensitivity score (S462 [6]) | drug sensitivity score (ST8814 [7]) | drug sensitivity score (STS26T [8]) | drug sensitivity score (YST-1 [9]) | drug sensitivity score (HS-PSS [10]) | drug sensitivity score [11] | drug sensitivity score [12] | drug sensitivity score (S1507-2 [13]) | drug sensitivity score (ST8814 [14]) | drug sensitivity score (STS26T [15]) | % inhibition (HS-PSS [16]) | % inhibition (HS-Sch-2 [17]) | % inhibition [18] | % inhibition [19] | % inhibition (S1507-2 [20]) | % inhibition (S462 [21]) | % inhibition (ST8814 [22]) | % inhibition (STS26T [23]) | % inhibition (YST-1 [24])
COc1ccc(S(=O)(=O)Nc2cccnc2Nc2ccc(O)cc2)cc1 [ABT-751] (max concentration tested 10000 nM) | 3.98 | 14.3 | 12.3 | 13.5 | 14 ± 0.54 | 16.8 ± 0.83 | 15.1 | 16.3 | 10.8 | 0 | 7.1 | 12.9 | 11.9 ± 0.12 | 13.5 | 19 | 69% | 87.8% | 76.6% | 86% | 79.7 ± 4.9% | 96.52 ± 0.26% | 86% | 94.9% | 83.1%
CCN(CCO)CCCOc1ccc2c(Nc3cc(CC(=O)Nc4cccc(F)c4)[nH]n3)ncnc2c1 [AZD1152-HQPA] (max concentration tested 1000 nM) | 0.81 | 0 | 7.19 | 8.05 | 3.8464 ± 7.1e-05 | 8.6 ± 0.56 | 4.68 | 4.07 | 11.2 | 0 | 0 | 0.941 | 0 | 4.15 | 3.61 | 9.86% | 0.66% | 34.7% | 39.6% | 37.8 ± 7.3% | 35.8 ± 1.1% | 51.2% | 41.2% | 40.6%
CC[C@H](CO)Nc1nc(NCc2ccccc2)c2ncn(C(C)C)c2n1 [Seliciclib] (max concentration tested 10000 nM) | 2.39 | 0.52 | 0.597 | 1.23 | 0 | 1.26 ± 0.44 | 0 | 0.759 | 0 | 0.1 | 0 | 0 | 0 | 0 | 0 | 30.8% | 22.6% | 22.5% | 34.7% | -2.22 ± 4.7% | 32.2 ± 3.6% | 5.24% | 23.2% | 5.74%
O=C(c1cc(Cc2n[nH]c(=O)c3ccccc23)ccc1F)N1CCN(C(=O)C2CC2)CC1 [Olaparib] (max concentration tested 10000 nM) | 1.4 | 2.98 | 3.07 | 3.8 | 1.07 ± 0.15 | 4.85 ± 0.63 | 1.85 | 3.17 | 10.2 | 0 | 0 | 0.201 | 0.075 ± 0.11 | 1.56 | 1.04 | 23.2% | 32.8% | 38.1% | 39.3% | 25.7 ± 8.5% | 61.15 ± 0.35% | 41.6% | 46.3% | 69%
O=C(O)CC[C@H]1CC[C@@](c2cc(F)ccc2F)(S(=O)(=O)c2ccc(Cl)cc2)CC1 [MK-0752] (max concentration tested 1000 nM) | 0 | 0 | 1.49 | 1.16 | 0 | 0 | 0 | 0 | 0 | 0 | 0 | 0 | 0.0001 ± 0.00014 | 0 | 0 | 5.19% | 10.9% | 13.4% | 15.4% | -8.17 ± 8.2% | 6.43 ± 3.5% | -3.6% | 4.15% | 4.12%
Nc1ncn([C@H]2C[C@H](O)[C@@H](CO)O2)c(=O)n1 [Decitabine] (max concentration tested 10000 nM) | 0 | 2.19 | 3.33 | 1.61 | 0.377 ± 0.53 | 4.99 ± 0.29 | 1.82 | 0.745 | 0 | 0 | 0 | 0 | 0.342 ± 0.48 | 0 | 0 | 4.62% | 27.8% | 20.3% | 27.7% | 16.3 ± 5.8% | 37.4 ± 5.4% | 18.8% | 16.2% | 4.17%
NS(=O)(=O)OC[C@@H]1C[C@@H](n2ccc3c(N[C@H]4CCc5ccccc54)ncnc32)C[C@@H]1O [Pevonedistat] (max concentration tested 10000 nM) | 23.8 | 28 | 12 | 14.3 | 17.3 ± 1 | 23.2 ± 1.4 | 20 | 12.7 | 15.2 | 10.7 | 4.84 | 3 | 16.7 ± 2.1 | 19.3 | 11.7 | 97% | 101% | 77.1% | 84.4% | 87.5 ± 1.1% | 96.07 ± 0.96% | 95.6% | 83.4% | 67.7%
CN[C@@H](C)C(=O)N[C@H]1CN(C(=O)CC(C)C)CC[C@H]2CC[C@@H](C(=O)NC(c3ccccc3)c3ccccc3)N2C1=O [AT-406] (max concentration tested 10000 nM) | 0.14 | 0 | 0 | 0 | 0.378 ± 0.28 | 0 | 0 | 12.4 | 0 | 0 | 0 | 0 | 13.1 ± 11 | 0 | 22.4 | 14.3% | 10.6% | -7.18% | -4.84% | 14.97 ± 0.11% | 3.84 ± 5.2% | 3.57% | 56% | 8.35%
CC[C@@H]1C(=O)N(C)c2cnc(Nc3ccc(C(=O)NC4CCN(C)CC4)cc3OC)nc2N1C1CCCC1 [BI 2536] (max concentration tested 1000 nM) | 15 | 24.5 | 13.3 | 17.4 | 19.5 ± 0.21 | 28.42 ± 0.2 | 22.1 | 29.6 | 20.5 | 0.25 | 11.3 | 20.1 | 15.6 ± 0.4 | 19.5 | 32.3 | 61% | 66.8% | 62.9% | 79.4% | 86.7 ± 3% | 101.6 ± 0.24% | 84.1% | 75.9% | 54.1%
Cc1cnc(NC(=O)Nc2cc(Br)c(C)cc2OC[C@@H]2CNCCO2)cn1 [Rabusertib] (max concentration tested 1000 nM) | 0.93 | 4.93 | 0.0015 | 1.36 | 3.39 ± 0.54 | 5.07 ± 0.2 | 0 | 2.75 | 1.96 | 0 | 0.0001 | 0 | 1.21 ± 1.4 | 0 | 1.88 | 17.4% | 84.7% | 11.3% | 22.3% | 51.1 ± 10% | 91.37 ± 0.63% | 2.25% | 36.4% | 32.8%
CC[C@@H]1C(=O)OC[C@@H]1Cc1cncn1C [Pilocarpine] (max concentration tested 40000 nM) | 0 | 0.48 | 0 | 0 | 0.028 ± 0.04 | 0 | 0 | 0 | 0 | 0 | 0 | 0 | 0 | 0 | 0 | 3.53% | 14.2% | -5.47% | -5.33% | -0.921 ± 8.8% | -8.07 ± 3.1% | -5.43% | -5.95% | -0.64%
COc1cc([C@@H]2c3cc4c(cc3[C@@H](O[C@@H]3O[C@@H]5CO[C@@H](C)O[C@H]5[C@H](O)[C@H]3O)[C@H]3COC(=O)[C@H]23)OCO4)cc(OC)c1O [Etoposide] (max concentration tested 10000 nM) | 3.08 | 8.86 | 7.17 | 11.2 | 5.59 ± 0.81 | 11.55 ± 0.037 | 5.79 | 7.33 | 14.5 | 0 | 2.21 | 3.62 | 1.82 ± 2.4 | 3.52 | 5.16 | 33% | 79.1% | 57.3% | 63.6% | 59.8 ± 1% | 90.4 ± 2.4% | 70.7% | 68% | 73.5%
CC(C)C[C@H](NC(=O)[C@@H](COC(C)(C)C)NC(=O)[C@H](Cc1ccc(O)cc1)NC(=O)[C@H](CO)NC(=O)[C@H](Cc1c[nH]c2ccccc12)NC(=O)[C@H](Cc1cnc[nH]1)NC(=O)[C@@H]1CCC(=O)N1)C(=O)N[C@@H](CCCNC(=N)N)C(=O)N1CCC[C@H]1C(=O)NNC(N)=O [Goserelin] (max concentration tested 10000 nM) | 0 | 0.06 | 0 | 0 | 0 | 0 | 0 | 0 | 0 | 0 | 0 | 0 | 0.454 ± 0.64 | 0 | 0 | -4.24% | 11.2% | 6.11% | -4.29% | -0.69 ± 5% | 0.735 ± 5% | 4.22% | 7.86% | -0.8%
